Biological target: T1, Putative nitroreductase (Staphylococcus saprophyticus subsp. saprophyticus (strain ATCC 15305 / DSM20229 / NCIMB 8711 / NCTC 7292 / S-41)) (UniProt Q4A0P1)
T1 sequence (whole entry): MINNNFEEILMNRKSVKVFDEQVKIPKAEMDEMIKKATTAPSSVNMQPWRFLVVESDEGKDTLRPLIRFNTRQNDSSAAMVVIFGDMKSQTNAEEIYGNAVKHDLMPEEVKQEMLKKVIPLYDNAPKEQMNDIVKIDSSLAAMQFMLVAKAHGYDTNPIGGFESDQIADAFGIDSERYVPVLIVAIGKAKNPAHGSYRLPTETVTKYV
Test: Substrate activity at Staphylococcus saprophyticus nitroreductase assessed as ratio of Kcat/Km up to 80 mM using NADH as cofactor relative to CB1954/NfsB

| SMILES | fold change (FC) |
| --- | --- |
| CCN(C(C)=O)c1cc([N+](=O)[O-])cc([N+](=O)[O-])c1 | 20.9 |
| NC(=O)c1cc(N(CCCl)CCCl)c([N+](=O)[O-])cc1[N+](=O)[O-] | 1.67 |
| NC(=O)c1cc(N2CC2)c([N+](=O)[O-])cc1[N+](=O)[O-] | 0.38 |
| CC(=O)Nc1cc([N+](=O)[O-])cc([N+](=O)[O-])c1 | 17.6 |
